Data on two molecules can be found in patent US4125707A, “Protected pseudotrisaccharide intermediate for paromomycin and neomycin derivatives” (Societa' Farmaceutici Italia S.p.A., priority 1974, dated 1978).

In general, MIC refers to the smallest concentration in the dilution series that meets the test's criterion for growth inhibition. Usually LD50 stands for the dose at which mortality reaches 50%. Read a low LD50 as a more toxic substance.

Data set [1] concerns Proteus sp.2. The experiment in a line: MIC, serial dilutions in liquid medium, Proteus sp.2. The data set is classed as cell-based. The settings on record: 24 h. How it is done: (§1) The "in vitro" tests were carried out with the method of serial dilutions in liquid medium (Nutrient Broth Difco). The minimal inhibitory concentration (MIC) was determined after 24 h incubation at 37° C.
(§2) The resistance to the aminosidine is due, in the case of E. coli 526, to the production of an aminoglycoside inactivating enzyme (NKT I); the other strains are clinical isolates whose mechanism of resistance is not know.

Data set [2] deals with ribosomes from Saccharomyces cerevisiae (8OS). Put plainly: inhibition of protein synthesis in cell-free system, 80S ribosomes. The data set is classed as biochemical. The method, then: (§3) Finally, compound 224 was tested as an inhibitor of protein synthesis on cell-free systems containing ribosomes from Escherichia coli (7OS) or from Saccharomyces cerevisiae (8OS).
(§4) (*)Dose inhibiting 50% of growth (.LAMBDA.) or of protein

Data set [3] relates to resistant strains (E. coli, Proteus sp.). The experiment in a line: antibacterial activity on resistant strains. It counts as cell-based. The settings on record: for growth of resistant strains (in words): E. coli, Proteus sp., at concentrations at which 224 prevents growth. How it is done:
as §1, §2

Data set [4] deals with Staphylococcus aureus. The experiment in a line: therapeutic activity in mice experimentally infected with Staphylococcus aureus. It counts as in vivo. Conditions: sc. The method, then:
(§5) The therapeutic activity was assessed in mice experimentally infected with Staphylococcus aureus and treated (4 h after infection) with a single dose of the compound by the subcutaneous route.

Data set [5] relates to E.coli K12. The experiment in a line: MIC, serial dilutions in liquid medium, E. coli K12. The data set is classed as cell-based. The settings on record: Escherichia coli, 24 h, 37° C, Nutrient Broth Difco. How it is done: as §1
Data set [6] has as its system algae and protozoa. Put plainly: growth of algae and protozoa. It counts as cell-based. Conditions: eukaryotic microorganisms, Table 2. How it is done: (§6) Other tests were carried out on algae and protozoa in order to evaluate the sensitivity of eukaryotic organisms to this new molecule (determination of MIC in liquid nutrient medium).
Data set [7] deals with Klebsiella pneumoniae. Put plainly: MIC, serial dilutions in liquid medium, Klebsiella pneumoniae. The data set is classed as cell-based. Conditions: 24 h. How it is done: as §1
In data set [8] the test system is Proteus sp.5. The experiment in a line: MIC, serial dilutions in liquid medium, Proteus sp.5. It counts as cell-based. The settings on record: 24 h. The method, then:
as §1, §2

Data set [9] relates to ribosomes from Escherichia coli (7OS). Put plainly: inhibition of protein synthesis in cell-free system, 70S ribosomes. The data set is classed as biochemical. The settings on record: for Activity (ID 50%), dose inhibiting 50% of protein synthesis: cell-free system, 70S ribosomes. The method, then:
as §3, §4

A short description of data set [10]: acute toxicity in mice. The settings on record: mouse, in vivo, sc, subcutaneous route. The method, then:
There were also carried out comparative trials for determining the actue toxicity and ototoxicity. The LD50 values in mice by the subcutaneous route are: Aminosidine, 700 mg/kg; Compound 224, 1000 mg/kg.

Data set [11] deals with Euglena gracilis. Put plainly: growth inhibition of Euglena gracilis in liquid nutrient medium. It counts as cell-based. How it is done: as §6, §4
Data set [12] has as its system Proteus sp.1. The experiment in a line: MIC, serial dilutions in liquid medium, Proteus sp.1. The data set is classed as cell-based. Conditions: 24 h, 37° C, Nutrient Broth Difco. The method, then:
as §1, §2

In data set [13] the test system is Proteus sp.3. Put plainly: MIC, serial dilutions in liquid medium, Proteus sp.3. It counts as cell-based. Conditions: 24 h, 37° C, Nutrient Broth Difco. How it is done: as §1, §2
Data set [14] concerns Tetrahymena geleei. Put plainly: growth inhibition of Tetrahymena geleei in liquid nutrient medium. It counts as cell-based. The method, then: as §6, §4
Data set [15] has as its system Proteus sp.4. The experiment in a line: MIC, serial dilutions in liquid medium, Proteus sp.4. The data set is classed as cell-based. The settings on record: 24 h, 37° C, Nutrient Broth Difco. The method, then:
as §1, §2

The test system of data set [16] is Staphilococcus aureus. Put plainly: MIC, serial dilutions in liquid medium, Staphylococcus aureus. The data set is classed as cell-based. Conditions: 24 h. How it is done:
as §1

The subject of data set [17] is Escherichia coli B. The experiment in a line: MIC, serial dilutions in liquid medium, Escherichia coli B. The data set is classed as cell-based. The settings on record: 24 h, 37° C, Nutrient Broth Difco. The method, then: as §1
For data set [18], the system named is Ochromonas malhamensis. Put plainly: growth inhibition of Ochromonas malhamensis in liquid nutrient medium. It counts as cell-based. How it is done: as §6, §4
Data set [19] concerns E.coli 526. The experiment in a line: MIC, serial dilutions in liquid medium, E. coli 526 (resistant, NKT I). The data set is classed as cell-based, Escherichia coli. How it is done: as §1, §2
The test system of data set [20] is Entamoeba histolytica. The experiment in a line: growth inhibition of Entamoeba histolytica in liquid nutrient medium. It counts as cell-based. The method, then:
as §6

Data set [21] has as its system bacteria sensitive to the aminosidine. Put plainly: antibacterial activity in vitro and in vivo on bacteria sensitive to aminosidine. How it is done: as §1, §5
Where [22] appears, read: 37° C, Nutrient Broth Difco, read-out: MIC.

In brackets after ≈: the same amount, converted by molar mass. Like-named read-outs stand apart in the source and are kept apart here.

For the molecule `NC[C@@H]1O[C@H](O[C@H]2[C@@H](O)[C@H](O[C@@H]3[C@@H](O)[C@H](N)C[C@H](N)[C@H]3O[C@H]3O[C@H](CO)[C@@H](O)[C@H](O)[C@H]3N)O[C@@H]2CO)[C@H](N)[C@@H](O)[C@@H]1O` [Aminosidine, reference compound], the MIC in data set [1] was above 500 µg/mL; in data set [5] it was 500 µg/mL (≈ 812 µM); in data set [7] it was 1 µg/mL (≈ 1.62 µM); in data set [8] it was above 500 µg/mL; in data set [12], 500 µg/mL (≈ 812 µM); in data set [13], above 500 µg/mL. In addition, the MIC is above 500 µg/mL in data set [15]; 3.1 µg/mL (≈ 5.04 µM) in data set [16]; 6.2 µg/mL (≈ 10.1 µM) in [17]; above 500 µg/mL in data set [19] (Escherichia coli, 526, 24 h). The “Activity (ID 50%), dose inhibiting 50% of protein synthesis” value in data set [2] is on record as 65; in data set [9], 30. The “growth of resistant strains (in words)” value in data set [3] was “completely inactive”. Further, the ED50 in data set [4] (4 h, read-out: DT50) worked out at 25 mg/kg. In addition, the “effect on growth of algae and protozoa (in words)” value in data set [6] is reported as “strong inhibitor of the organisms tested”. Moreover, in [10], the LD50 is 700 mg/kg. The “Activity (ID 50%), dose inhibiting 50% of growth” value is 12.5 in [11], 12.5 in [14], 1.56 in data set [18] and 1 in data set [20].
`NC[C@@H]1O[C@H](O[C@H]2[C@@H](O)[C@H](O[C@@H]3[C@@H](O)[C@H](N)C[C@H](N)[C@H]3O[C@H]3O[C@H](CN)[C@@H](O)[C@H](O)[C@H]3O)O[C@@H]2CO)[C@H](N)[C@@H](O)[C@@H]1O` [compound 224]: the MIC came to 250 µg/mL (≈ 406 µM) in [1] (setting [22]); 125 µg/mL (≈ 203 µM) in data set [5]; 2 µg/mL (≈ 3.25 µM) in [7] (setting [22]); 250 µg/mL (≈ 406 µM) in data set [8] (setting [22]); 125 µg/mL (≈ 203 µM) in [12]; 125 µg/mL (≈ 203 µM) in [13]. The MIC in data set [15] stood at 125 µg/mL (≈ 203 µM); in data set [16] (setting [22]), 6.2 µg/mL (≈ 10.1 µM); in data set [17] it was 12.5 µg/mL (≈ 20.3 µM); in data set [19] (Escherichia coli, 526, 24 h, 37° C, Nutrient Broth Difco, resistant strain, read-out: MIC) it was 100 µg/mL (≈ 162 µM). Moreover, the “antibacterial activity in vitro and in vivo (in words)” value in [21] (bacteria sensitive to the aminosidine) is “remarkable antibacterial activity in vitro and in vivo”. Further, the “antibacterial activity compared with aminosidine, sensitive strains (in words)” value in [21] (sensitive strains) was “of the same order of magnitude of that of aminosidine”. The entries for the “Activity (ID 50%), dose inhibiting 50% of protein synthesis” value in [2] and in [9] were above 500 and 40, respectively. The “growth of resistant strains (in words)” value in [3] is on record as “prevents the growth of resistant strains”. Besides, in data set [3] (resistant strains), the “antibacterial activity compared with aminosidine, resistant strains (in words)” value is “clearly superior on resistant strains”. Further, the ED50 in data set [4] (mice, single subcutaneous dose 4 h after infection, read-out: DT50 (the source's name)) was 50 mg/kg. Further, the “effect on growth of algae and protozoa (in words)” value in data set [6] was “does not affect the growth of algae and protozoa”. Further, in data set [9] (7OS in comparison with 8OS ribosomes), the “selective inhibition of protein synthesis (in words)” value is “selective inhibition of protein synthesis”. The LD50 in [10] turned out to be 1000 mg/kg. The “Activity (ID 50%), dose inhibiting 50% of growth” value is on record as above 100 in data set [11], above 100 in data set [14], above 100 in data set [18] and above 20 in data set [20].
